Assay results as given in patent US20240252454A1, “COMPOSITION COMPRISING AN INHIBITOR OF MITOCHONDRIAL TRANSCRIPTION” (LEAD DISCOVERY CENTER GMBH, priority 2021, published 2024).

Experiments:
Assay in all cases: SRB assay, IMT combined with inhibitor
Format in all cases: cell-based
[1] = test system: SKOV3; conditions: SKOV3 (ovary); concentration series of the labelled inhibitor + fixed concentration of IMT (3S)-1-[(2R)-2-[4-(2-chloro-4-fluoro-phenyl)-2-oxo-chromen-7-yl]oxypropanoyl]piperidine-3-carboxylic acid (Table 3: 40 nM, 120 h); negative=synergistic, positive=antagonistic
Experimental: (§1) Solforhodamine B assay is carried out as described in Voigt W. (2005) Sulforhodamine B Assay and Chemosensitivity. (Methods in Molecular Medicine™, vol 110. Humana Press. https://doi.org/10.1385/1-59259-869-2:039).
(§2) The determination of changes in cellular biomass was based on the Solforhodamine B assay format, carried out as described in Voigt W. (2005) Sulforhodamine B Assay and Chemosensitivity. (Methods in Molecular Medicine™, vol 110. Humana Press. https://doi.org/10.1385/1-59259-869-2:039).
(§3) All in vitro cell culture experiments were carried out under near physiological glucose concentrations (5 mM) in at least two independent replicates.
(§4) First, 30 different cell lines from 14 different tissue types were tested in the SRB assay format. The cells were examined individually for changes in growth over a period of 120 hours with dilution series of both inhibitors. Untreated cells were used as a negative control group. Subsequently, a dilution series of the respective MAPK signalling pathway SOCs was treated in combination with a fixed concentration of 40 nM (3S)-1-[(2R)-2-[4-(2-chloro-4-fluoro-phenyl)-2-oxo-chromen-7-yl]oxypropanoyl]piperidine-3-carboxylic acid.

[2] = test system: A673; conditions: A673 (muscle); concentration series of the labelled inhibitor + fixed concentration of IMT (3S)-1-[(2R)-2-[4-(2-chloro-4-fluoro-phenyl)-2-oxo-chromen-7-yl]oxypropanoyl]piperidine-3-carboxylic acid (Table 3: 40 nM, 120 h); negative=synergistic, positive=antagonistic
Experimental: as §1, §2, §3, §4

[3] = test system: HCT15; conditions: HCT15 (colon); concentration series of the labelled inhibitor + fixed concentration of IMT (3S)-1-[(2R)-2-[4-(2-chloro-4-fluoro-phenyl)-2-oxo-chromen-7-yl]oxypropanoyl]piperidine-3-carboxylic acid (Table 3: 40 nM, 120 h); negative=synergistic, positive=antagonistic
Experimental: as §1, §2, §3, §4

[4] = test system: U87MG; conditions: U87MG (brain); concentration series of the labelled inhibitor + fixed concentration of IMT (3S)-1-[(2R)-2-[4-(2-chloro-4-fluoro-phenyl)-2-oxo-chromen-7-yl]oxypropanoyl]piperidine-3-carboxylic acid (Table 3: 40 nM, 120 h); negative=synergistic, positive=antagonistic
Experimental: as §1, §2, §3, §4

[5] = test system: SKMEL5; conditions: SKMEL5 (skin); concentration series of the labelled inhibitor + fixed concentration of IMT (3S)-1-[(2R)-2-[4-(2-chloro-4-fluoro-phenyl)-2-oxo-chromen-7-yl]oxypropanoyl]piperidine-3-carboxylic acid (Table 3: 40 nM, 120 h); negative=synergistic, positive=antagonistic
Experimental: as §1, §2, §3, §4

[6] = test system: DU145; conditions: DU145 (prostate); concentration series of the labelled inhibitor + fixed concentration of IMT (3S)-1-[(2R)-2-[4-(2-chloro-4-fluoro-phenyl)-2-oxo-chromen-7-yl]oxypropanoyl]piperidine-3-carboxylic acid (Table 3: 40 nM, 120 h); negative=synergistic, positive=antagonistic
Experimental: as §1, §2, §3, §4

[7] = test system: MIAPACA2; conditions: MIAPACA2 (pancreas); concentration series of the labelled inhibitor + fixed concentration of IMT (3S)-1-[(2R)-2-[4-(2-chloro-4-fluoro-phenyl)-2-oxo-chromen-7-yl]oxypropanoyl]piperidine-3-carboxylic acid (Table 3: 40 nM, 120 h); negative=synergistic, positive=antagonistic
Experimental: as §1, §2, §3, §4

[8] = test system: SW620; conditions: SW620 (colon); concentration series of the labelled inhibitor + fixed concentration of IMT (3S)-1-[(2R)-2-[4-(2-chloro-4-fluoro-phenyl)-2-oxo-chromen-7-yl]oxypropanoyl]piperidine-3-carboxylic acid (Table 3: 40 nM, 120 h); negative=synergistic, positive=antagonistic
Experimental: as §1, §2, §3, §4

[9] = test system: KASUMI-1; conditions: KASUMI-1 (hematological); concentration series of the labelled inhibitor + fixed concentration of IMT (3S)-1-[(2R)-2-[4-(2-chloro-4-fluoro-phenyl)-2-oxo-chromen-7-yl]oxypropanoyl]piperidine-3-carboxylic acid (Table 3: 40 nM, 120 h); negative=synergistic, positive=antagonistic
Experimental: as §1, §2, §3, §4

[10] = test system: U2OS; conditions: U2OS (bone); concentration series of the labelled inhibitor + fixed concentration of IMT (3S)-1-[(2R)-2-[4-(2-chloro-4-fluoro-phenyl)-2-oxo-chromen-7-yl]oxypropanoyl]piperidine-3-carboxylic acid (Table 3: 40 nM, 120 h); negative=synergistic, positive=antagonistic
Experimental: as §1, §2, §3, §4

[11] = test system: JAR; conditions: JAR (placenta); concentration series of the labelled inhibitor + fixed concentration of IMT (3S)-1-[(2R)-2-[4-(2-chloro-4-fluoro-phenyl)-2-oxo-chromen-7-yl]oxypropanoyl]piperidine-3-carboxylic acid (Table 3: 40 nM, 120 h); negative=synergistic, positive=antagonistic
Experimental: as §1, §2, §3, §4

[12] = test system: CALU6; conditions: CALU6 (lung); concentration series of the labelled inhibitor + fixed concentration of IMT (3S)-1-[(2R)-2-[4-(2-chloro-4-fluoro-phenyl)-2-oxo-chromen-7-yl]oxypropanoyl]piperidine-3-carboxylic acid (Table 3: 40 nM, 120 h); negative=synergistic, positive=antagonistic
Experimental: as §1, §2, §3, §4

[13] = test system: A549; conditions: A549 (lung); concentration series of the labelled inhibitor + fixed concentration of IMT (3S)-1-[(2R)-2-[4-(2-chloro-4-fluoro-phenyl)-2-oxo-chromen-7-yl]oxypropanoyl]piperidine-3-carboxylic acid (Table 3: 40 nM, 120 h); negative=synergistic, positive=antagonistic
Experimental: as §1, §2, §3, §4

[14] = test system: MV4-11; conditions: MV4-11 (hematological); concentration series of the labelled inhibitor + fixed concentration of IMT (3S)-1-[(2R)-2-[4-(2-chloro-4-fluoro-phenyl)-2-oxo-chromen-7-yl]oxypropanoyl]piperidine-3-carboxylic acid (Table 3: 40 nM, 120 h); negative=synergistic, positive=antagonistic
Experimental: as §1, §2, §3, §4

[15] = test system: HELA; conditions: HELA (cervix); concentration series of the labelled inhibitor + fixed concentration of IMT (3S)-1-[(2R)-2-[4-(2-chloro-4-fluoro-phenyl)-2-oxo-chromen-7-yl]oxypropanoyl]piperidine-3-carboxylic acid (Table 3: 40 nM, 120 h); negative=synergistic, positive=antagonistic
Experimental: as §1, §2, §3, §4

SMILES	difference between the calculated combinatorial index (BLISS) and the observed combinatorial effect [1]	difference between the calculated combinatorial index (BLISS) and the observed combinatorial effect [2]	difference between the calculated combinatorial index (BLISS) and the observed combinatorial effect [3]	difference between the calculated combinatorial index (BLISS) and the observed combinatorial effect [4]	difference between the calculated combinatorial index (BLISS) and the observed combinatorial effect [5]	difference between the calculated combinatorial index (BLISS) and the observed combinatorial effect [6]	difference between the calculated combinatorial index (BLISS) and the observed combinatorial effect [7]	difference between the calculated combinatorial index (BLISS) and the observed combinatorial effect [8]	difference between the calculated combinatorial index (BLISS) and the observed combinatorial effect [9]	difference between the calculated combinatorial index (BLISS) and the observed combinatorial effect [10]	difference between the calculated combinatorial index (BLISS) and the observed combinatorial effect [11]	difference between the calculated combinatorial index (BLISS) and the observed combinatorial effect [12]	difference between the calculated combinatorial index (BLISS) and the observed combinatorial effect [13]	difference between the calculated combinatorial index (BLISS) and the observed combinatorial effect [14]	difference between the calculated combinatorial index (BLISS) and the observed combinatorial effect [15]
C[C@H](Nc1ncnc2nc[nH]c12)c1cc2cccc(Cl)c2c(=O)n1-c1ccccc1 [Duvelisib]	0.0398	0.0570	0.0170	0.0433	−0.1083	0.0362	−0.0183	−0.0623	−0.0237	−0.0126	0.0624	0.0342	−0.0092	0.0611	−0.0666
COc1c(OCCCN2CCOCC2)ccc2c1N=C(NC(=O)c1cnc(N)nc1)N1CCN=C21 [BAY 80-6946, 2-Amino-N-{7-methoxy-8-[3-(4-morpholinyl)propoxy]-2,3-dihydroimidazo[1,2-c]quinazolin-5-yl}-5-pyrimidinecarboxamide]	0.0112	0.0259	0.1444	0.0243	−0.0994	0.0423	0.0574	−0.0651	0.0015	0.0017	0.0381	0.0374	0.0159	0.0337	−0.0260
CC(C)Nc1cc(-c2c[nH]c(C(=O)N[C@H](CO)c3cccc(Cl)c3)c2)c(Cl)cn1 [Ulixertinib]	0.0284	0.0876	−0.0215	0.0859	−0.0542	0.0554	0.0431	0.0256	0.0068	−0.0165	0.0116	0.0100	−0.0185	0.0079	−0.0117
